The record followed here is patent US20190314256A1, “COSMETIC BASE INCLUDING AMIDE ALCOHOL ESTER, AND COSMETIC” (Kokyu Alcohol Kogyo Co., Ltd., priority 2016, published 2019).

Holding throughout (type): physicochemical
A short description of data set [1]: Pigment dispersibility (wet point WP and flow point FP). To be noted: titanium oxide, zinc oxide, iron oxide. An excerpt: 1. Weigh 1.5 g of a pigment in mortar. 2. Gradually add an oil dropwise and knead with a pestle. 3. Check the weight of the oil at each point of WP and FP. 4. Calculate WP and FP per 100 g of the pigment. WP: Wet point (the lower the wet point, the better the wettability of the pigment.) FP: Flow point (the lower the flow point, the better the dispersibility of the pigment.)

The nature of the next data set: Viscosity.
Data set [2] can be described thus: Solubility and gelling ability with each liquid; critical gelation concentration by sample tube inversion method. The conditions noted are these: physical form of the ester.
Experiment in data set [3]: as above
More on the design: key: S: Soluble; I: Insoluble/separation; G: Gel; T: Thickening; EG: Emulsion gel. As for the experimental part:
The amide alcohol or ester of amide alcohol was heated and mixed with each liquid, and the critical gelation concentration was measured by sample tube inversion method.
Sample tube used: used tube: Maruemu screw tube No. 7 (trunk diameter 35 mm total length 78 mm)

For “N-2 ethylhexylbutyramide 4-isostearic acid ester [EHBA-IS]”, in data set [1], the pigment dispersibility entry was “excellent pigment dispersibility”. In the data set “Viscosity”, the viscosity entry is reported as “approximately 270 mPa·s”.
For the compound `CCCCCCCCCCCC(=O)OCCCC(=O)NCCCCCCCC` [OBA-L, N-octylbutyramide-4-lauric acid ester], in data set [2], the Property entry is listed as “Solid”. The “solubility and gelling ability” value in data set [3] (Ethanol) was “S”; in data set [3] (Glycerin), “I”; in data set [3] (Octyldodecanol), “G”; in data set [3] (Octyldodecyl myristate) it was “G”; in data set [3] (Squalane), “G”; in data set [3] (Triethylhexanoin) it was “G”. Besides, the “solubility and gelling ability” value in data set [3] (Water) is listed as “I”.
As to `CCCCCCCCCCCCCC(=O)OCCCC(=O)NCCCCCCCCCCCC` [LBA-M, N-laurylbutyramide-4-myristic acid ester], in data set [2], the Property result is “Solid”. The “solubility and gelling ability” value in data set [3] (Ethanol) is “G”; in data set [3] (Glycerin), “I”; in data set [3] (Octyldodecanol), “G”; in data set [3] (Octyldodecyl myristate) it was “G”; in data set [3] (Squalane) it was “G”; in data set [3] (Triethylhexanoin), “G”. Besides, the “solubility and gelling ability” value in data set [3] (Water) was “I”.
On to `CCCCCCCCCCCC(=O)OCCCC(=O)NCC(CC)CCCC` (centres unmarked) [EHBA-L, N-2 ethylhexylbutyramide-4-lauric acid ester], for which, in data set [2], the Property result is reported as “Solid”. Moreover, the “solubility and gelling ability” value in data set [3] (Ethanol) is listed as “S”; in data set [3] (Glycerin), “I”; in data set [3] (Octyldodecanol), “S”; in data set [3] (Octyldodecyl myristate) it was “S”; in data set [3] (Squalane), “I”; in data set [3] (Triethylhexanoin), “I”. Also, the “solubility and gelling ability” value in data set [3] (Water) is reported as “I”.
Turning to “N-cyclohexylbutyramide-4-isostearic acid ester [CHBA-IS]”, the pigment dispersibility entry in data set [1] is on record as “excellent pigment dispersibility”. In addition, in “Viscosity”, the viscosity entry is reported as “approximately 230 mPa·s”.
With `CCCCCCCCCCCC(=O)OCCCC(=O)NC1CCCCC1` [CHBA-L, N-cyclohexylbutyramide-4-lauric acid ester], in data set [2], the Property entry is “Solid”. Besides, the “solubility and gelling ability” value in data set [3] (Ethanol) was “S”; in data set [3] (Glycerin) it was “I”; in data set [3] (Octyldodecanol), “G”; in data set [3] (Octyldodecyl myristate) it was “G”; in data set [3] (Squalane) it was “G”; in data set [3] (Triethylhexanoin), “G”. Moreover, in data set [3] (Water), the “solubility and gelling ability” value is listed as “I”.
In the case of `CCCCCCCCCCCCNC(=O)CCCOC(=O)CCCCCCCCCCC` [LBA-L, N-laurylbutyramide-4-lauric acid ester], the Property entry in data set [2] is “Solid”. Besides, the “solubility and gelling ability” value is “G” in data set [3] (Ethanol); “I” in data set [3] (Glycerin); “G” in data set [3] (Octyldodecanol); “G” in data set [3] (Octyldodecyl myristate); “G” in data set [3] (Squalane); “G” in data set [3] (Triethylhexanoin). Moreover, the “solubility and gelling ability” value in data set [3] (Water) is recorded as “I”.
